The text below walks through data of ChEMBL document CHEMBL3734670, “Synthetic spirocyclic endoperoxides: new antimalarial scaffolds” (Medchemcomm, 2015).

A value given as a limit tells only on which side of the number the result lay.

For data set [1], the system named is Plasmodium falciparum. The experiment in a line: Antiplasmodial activity against chloroquine-resistant Plasmodium falciparum W2 infected in human A positive erythrocyte assessed as inhibition of parasite growth after 72 hrs by parasite lactate dehydrogenase assay. As to conditions: W2, 72 h. It counts as functional, organism-based.
Data set [2] deals with Plasmodium falciparum. The experiment in a line: Antiplasmodial activity against chloroquine-sensitive Plasmodium falciparum D10 infected in human A positive erythrocyte assessed as inhibition of parasite growth after 72 hrs by parasite lactate dehydrogenase assay. It counts as functional, organism-based. As to conditions: D10, 72 h.
Data set [3] concerns Plasmodium berghei. The experiment in a line: Antimalarial activity against chloroquine-sensitive Plasmodium berghei ANKA erythrocytic stage infected in BALB/c mouse assessed as reduction in parasitaemia at 100 mg/kg, ip qd after 5 days by Peters 4 days test. It is filed as functional. More on the design: scale not given: the % may be the effect or the level left.
In data set [4] the test system is Mus musculus. The experiment in a line: Toxicity against BALB/c mouse infected with chloroquine-sensitive Plasmodium berghei ANKA at 100 mg/kg, ip qd for 5 days. It counts as organism-based. As to conditions: in vivo, 120 h.
Data set [5] can be described thus: Cytotoxicity against mouse NIH/3T3 cells assessed as cell viability after 24 hrs by neutral red uptake assay. It counts as cell-based, NIH3T3. As to conditions: read-out: TC50.

Consider `C[C@@]12CCO[C@@H]1OOC21CCCCC1` (racemic), for which the values for the 50% inhibitory concentration (IC50) in data set [1] and in data set [2] were over 25000 nM and 8500 nM, respectively.
In the case of `C[C@@H]1CC[C@H]2[C@@H](C)C(=O)O[C@@H]3O[C@@]4(C)CC[C@@H]1[C@]32OO4` [ARTEMISININ], in data set [1], the IC50 (in general, the concentration at which inhibition is half-maximal) worked out at 12 nM.
For `C1CCC2(CC1)OO[C@H]1CCCC[C@H]12` (racemic), the concentration for half-maximal inhibition (IC50) came to 3200 nM in data set [1] and 7200 nM in data set [2].
In the same order, the values of `C[C@@]12CCO[C@@H]1OOC1(CCCCC1)C2` (racemic) are 1100 nM and 5300 nM.
In the same order, the values of `C[C@@]12CCO[C@@H]1OO[C@@](C)(C1CCCC1)C2` (mixture of isomers) are 800 nM and 1200 nM.
In the same order, the values of `C[C@@]1(CC23CC4CC(CC(C4)C2)C3)C[C@]2(C)CCO[C@@H]2OO1` (mixture of isomers) are 390 nM and 850 nM.
On to `C[C@@]12CCO[C@@H]1OO[C@@](C)(C1CCCCC1)C2` (mixture of isomers), for which the IC50 turned out to be 140 nM in data set [1] and 390 nM in data set [2].
Regarding `C[C@@]12CCO[C@@H]1OOC1(C2)C2CC3CC(C2)CC1C3` (mixture of isomers), the IC50 came out at 160 nM in data set [1] and 610 nM in data set [2]. The figures for the Activity in data set [3] and in data set [4] were 72.5% and “Non-toxic”, respectively. The CC50 at 24 h in data set [5] amounted to 150000 nM.
Turning to `C[C@@]12CCO[C@@H]1OOC1(CCCC1)C2` (racemic), the IC50 was 470 nM in data set [1] and 840 nM in data set [2].
In the same order, the values of `C[C@@]12CCO[C@@H]1OOC1(CCCCC1)CC2` (racemic) are over 17000 nM and over 20000 nM.
